Source: patent publication US8728777B2, “High performance metabolic bacteria” (Deinove, priority 2009, dated 2014)

Columns and labels:
[1] = tested on: Deinococcus strain M13-1A; details: ethanol added at T0, 45° C., aerobiosis, Complex medium Glucose, minimum concentration with total growth inhibition
Procedure: (§1) This method enables evaluation of the micro-organism sensitivity to ethanol. The test is carried out at 45° C. (Thermophilic strains). Ethanol bactericidy is determined with ethanol added at: • T0, • exponential phase, • stationary phase.
(§2) For ethanol bactericidy at T0, ethanol percentages between 0 to 10% are tested.
(§3) From a pre-culture in stationary phase in an enriched culture medium, for each ethanol content to be tested, 200 μl of Complex medium Glucose is seeded at 1% v/v.
(§4) Complex Medium Glucose contains: peptone 2 g/L, yeast extract 5 g/L and glucose 10 g/Lin osmosed water: solution sterilized by autoclaving (15 minutes at 120° C.). To this solution are added the following solutions: MOPS buffer solution (10×) pH7 [acid MOPS 400 mM, NH4Cl 200 mM, NaOH 100 mM, KOH 100 mM, CaCl2 5 μM, Na2SO4 2.76 mM, MgCl2 5.28 mM]; micronutrients (10000×) [[…] 300 mM, H3BO3 4 mM, CoCl2 0.3 mM, CuSO4 0.1 mM, MnCl2 2.5 mM, ZnSO4 0.1 mM]; FeCl3(100×) 2 mM in C6H5Na3O7 20 mM; K2HPO4 1 g/L: solutions sterilized by filtration (0.2 μm).
(§5) The test is performed in 96 wells microplates in aerobiosis. Ethanol evaporation is avoided using a sterile impermeable film.
(§6) The reading of the result is done by naked eye.

[2] = tested on: Deinococcus strain MC2-2A; details: ethanol added at T0, 45° C., aerobiosis, Complex medium Glucose, minimum concentration with total growth inhibition
Procedure: as §1, §2, §3, §4, §5, §6

[3] = tested on: Deinococcus strain M13-1A; details: ethanol added at exponential phase, 2 hours incubation, minimum concentration with loss of one log in relation to the control
Procedure: as §1
(§7) Ethanol Bactericidy at Exponential and Stationary Phases Test:
(§8) From a pre-culture in stationary phase in an enriched culture medium, for each ethanol content to be tested, 5 mL of Complex medium Glucose is seeded at 1% v/v.
as §4
(§9) A follow-up of growth is carried out using the control culture (no ethanol add neither at exponential phase nor at stationary phase). OD is read at 600 nm using a spectrophotometer (UV Light XS5, SECOMAM).
(§10) Once the exponential growth phase (optical density of 0.5 at 600 nm), or once the stationary phase (plateau), is reached, the solvent is added. The content tested is 0 to 20%. Then, cultures are incubated during 2 hours.
(§11) At the end of the incubation period and for each ethanol content tested, a count is taken to assess the influence of the ethanol on the strain.
(§12) Count: At the end of incubation, and for each concentration in solvent, 200 μL of culture are transferred onto another microplate and are diluted in cascade (dilutions at 1/10 over 9 wells). The dilution culture medium is an enriched medium.

[4] = tested on: Deinococcus strain MC2-2A; details: 2 hours incubation, minimum concentration with loss of one log in relation to the control
Procedure: as §1, §7, §8, §4, §9, §10, §11, §12

**Q.** Which results are given for `CCO` [Ethanol, ethanol]?
**A.** Ethanol Bactericidy T0 [1]: 2.5%; Ethanol Bactericidy T0 [2]: 5%; Ethanol Bactericidy Exponential phase [3]: 5%; Ethanol Bactericidy Exponential phase ([4]; ethanol added at exponential phase): 15%; Ethanol Bactericidy Stationary phase ([4]; ethanol added at stationary phase): 15%
